From patent publication US7572600B2, “Enzymatic activities in chemokine-mediated inflammation” (Chemocentryx, Inc., priority 2004, dated 2009)
Where no end group is shown, it is not given here.

T1: FPRL1 (Homo sapiens, UniProt P25090)
T1 sequence (P25090 1-351): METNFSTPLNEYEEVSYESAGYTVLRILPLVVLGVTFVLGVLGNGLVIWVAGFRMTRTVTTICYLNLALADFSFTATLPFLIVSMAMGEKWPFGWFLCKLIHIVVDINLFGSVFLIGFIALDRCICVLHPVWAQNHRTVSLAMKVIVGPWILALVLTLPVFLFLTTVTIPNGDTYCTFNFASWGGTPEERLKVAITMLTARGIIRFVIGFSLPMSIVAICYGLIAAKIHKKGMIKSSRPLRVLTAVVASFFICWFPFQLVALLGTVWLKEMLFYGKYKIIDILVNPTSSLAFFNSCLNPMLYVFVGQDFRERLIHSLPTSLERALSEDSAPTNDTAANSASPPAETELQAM

T2: CCR1 (Homo sapiens, UniProt P32246)
T2 sequence (P32246 1-355): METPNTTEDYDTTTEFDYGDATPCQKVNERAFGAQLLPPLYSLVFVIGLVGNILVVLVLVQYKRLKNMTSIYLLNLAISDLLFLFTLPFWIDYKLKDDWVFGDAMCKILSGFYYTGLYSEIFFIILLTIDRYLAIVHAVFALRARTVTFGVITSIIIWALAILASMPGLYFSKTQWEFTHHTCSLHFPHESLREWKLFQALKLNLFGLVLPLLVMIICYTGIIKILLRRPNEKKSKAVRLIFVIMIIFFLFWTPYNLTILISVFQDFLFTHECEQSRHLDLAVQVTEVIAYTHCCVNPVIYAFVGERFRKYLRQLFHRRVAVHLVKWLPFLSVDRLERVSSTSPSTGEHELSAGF


What was measured:
FPRL1 [1] = target: T1, FPRL1; experiment: Competition binding with 125I-WKYMVm on human monocytes; set-up: endogenous in cells; host or cells: human CD14+ monocytes from buffy coats
Method: Binding assay. Competition binding studies were conducted using monocytes, L1.2-CCR1 or L1.2-FPRL1 cells. […] Reactions were aspirated onto PEI-treated GF/B glass filters using a cell harvester (Packard). Filters were washed twice (25 mM HEPES, 500 mM NaCl, 1 mM CaCl2, 5 mM MgCl2, adjusted to pH 7.1). Scintillant (MicroScint-10; 35 μl) was added to the filters and counted in a Packard Topcount scintillation counter. Data were analyzed and plotted using Prism (GraphPad Software, San Diego, Calif.).

FPRL1 [2] = target: T1, FPRL1; experiment: Functional assays on FPRL1 (receptor signaling and chemotaxis); type: cell-based; set-up: endogenous in cells; host or cells: human CD14+ monocytes from buffy coats
Method: (§1) Receptor signaling assay. For individual measurements, cells were loaded for 45 min at room temperature with 2 μM indo-1/AM (Invitrogen, Carlsbad Calif.) in culture medium, then washed with 10 ml PBS and resuspended at 10^6 cells/ml in HBSS containing 0.1% BSA. Cytosolic calcium levels were determined using a Photon Technology International fluorimeter (excitation at 350 nm, ratio of dual emission at 400 and 490 nm). For measuring calcium dose responses, cells were analyzed with a Fluorometric Imaging Plate Reader 384 (FLIPR^384) (Molecular Devices, Sunnyvale, Calif.). Cells were loaded for 1 hr at 37° C. with 5 μM fluo-4 in HBSS with 0.1% BSA, then washed, transferred to black-wall 96-well plates, and subsequently excited at 505 nm with emission recorded at 530 nm with a standard protocol provided by the manufacture. Cells were stimulated with agonists 20 s after the monitoring of fluorescence began. Data were analyzed and plotted in arbitrary units of fluorescence using Prism. To ensure that responses were specific to FPRL1, we utilized a selective small-molecule antagonist of human FPRL1, generated by ChemoCentryx, which was optimized from a high throughput compound library screening approach.
Chemotaxis assays. L1.2-CCR1 and L1.2-FPRL1 transfectants, monocytes and neutrophils were collected by centrifugation and resuspended in HBSS with 0.1% BSA. The assays were performed in 96-well ChemoTx® microplates (Neuroprobe, Rockville, Md.). Chemokines were diluted in HBSS with 0.1% BSA and added to the lower wells (final volume 29 μL), then 20 μL of cell suspension (5×10^6 cells/mL for monocytes; 2.5×10^6 cells/mL for neutrophils) were added to the polycarbonate filters (5 μm pore size for monocytes and FPRL1 transfectants; 3 μm pore size for neutrophils). After incubation for 90 min (37° C., 100% humidity, 5% CO2), the filters were removed and the cells that migrated into the lower chamber were quantified by using the CyQuant cell proliferation assay kit (Molecular Probes, Oreg.).

CCR1 = target: T2, CCR1; experiment: Calcium mobilization in murine L1.2 cells expressing human CCR1; type: cell-based; set-up: expressed in transfected cells; host or cells: murine L1.2 cells (G-418 selected transfectant); details: L1.2 cells stably expressing human CCR1
Method: Calcium Mobilization Assay. Cells were loaded for 1 hour with 2 μM indo-1/AM dye (Molecular Probes, Eugene, Oreg.) in culture medium, then washed with 10 ml PBS and resuspended at 10^6/ml in HBSS containing 1% FBS. Cytosolic calcium responses were determined using a Photon Technology International (Lawrenceville, N.J.) fluorimeter, with excitation at 350 nm and dual emission at 400 and 490 nm. Alternatively, cells were loaded with 5 μg/ml Fluo-4 AM dye (Molecular Probes, Eugene, Oreg.), then washed and analyzed on a Fluorometric Imaging Plate Reader 384 (FLIPR^384 Molecular Devices, Sunnyvale, Calif.), with 505 nm excitation and 530 nm emission.
as §1

| Molecule | IC50 (FPRL1 [1]) | fold more potent than all other natural agents posited to act on FPRL1 (FPRL1 [2]) | EC50 (FPRL1 [2]; isolated peptide) | potency and efficacy versus other purported natural FPRL1 ligands (SAA, beta-amyloid protein 42, lipoxin A4, fMLP) (FPRL1 [2]; receptor signaling and chemotaxis assays) | calcium mobilization in the CCR1 transfectant (CCR1) |
| --- | --- | --- | --- | --- | --- |
| MLWRRKIGPQMTLSHAAG [SHAAGtide] | 10 nM | 50 to 100 fold | 10 to 30 nM | more potent and efficacious |  |
| CCL23β Δ24: truncated form of CCL23β lacking the 24-residue N-terminal domain, beginning with the SHAAGtide insertion (protein, listed as Homo sapiens) MLWRRKIGPQMTLSHAAGFHATSADCCISYTPRSIPCSLLESYFETNSECSKPGVIFLTKKGRRFCANPSDKQVQVCMRMLKLDTRIKTRKN |  |  |  |  | effective at inducing calcium mobilization |
